Where two headings read alike, the source gives them in different places. Where a SMILES comes first, the peptide text is derived from it. The star is where a group is joined. Cbz = O=C(OCc1ccccc1)* A value given as a limit tells only on which side of the number the result lay.

The test system of the test is K328M-Wee1-Luc fusion protein in transiently transfected HeLa cells. As to the kind of experiment: K328M-Wee1-Luc degradation. The format is cell-based.

Usually EC50 stands for the concentration needed to bring the measured effect to its halfway point. On to `CC(C)C[C@@H](C=O)NC(=O)[C@H](CC(C)C)NC(=O)[C@H](CC(C)C)NC(=O)OCc1ccccc1` [MG132, Z-Leu-Leu-Leu-CHO] (Cbz-Leu-Leu-Leu-aldehyde), for which the “hill slope of dose-response curve” value is listed as greater than 2.5. The “increase in luminescent levels” value (30 μM, vs DMSO) is listed as greater than 9 fold. For the setting “optimized 1536-well protocol, n=5”, it took 4.69 µM to reach a half-maximal effect (EC50). Besides, the EC50 (read-out: EC50, different thawed vials from a single batch, n=4) came out at 4.7 µM. The EC50 (read-out: EC50, non-cryopreserved cells, non-cryopreserved cell suspensions) came to 5.33 µM.

(Values after PMC3082437 (Journal of biomolecular screening, 2010).)
